Source: a melting point compilation (Tetko et al.)

`Fc1ccc(-n2nc(CCl)c3c2CCC3)cc1` and `Cc1cc(N)nn1-c1ccc(Cl)cc1` cannot be ordered by melting point: 101 to 103 °C for the first, 100 to 102 °C for the second.

First: Cc1ccc(-n2nnc(C(=O)O)c2C)cc1
Second: CCCc1c(C(=O)O)nnn1-c1cccc(Cl)c1
The melting point of the first is higher: 184 to 186 °C for the first, 129 to 131 °C for the second.

First: Cc1nc2nc(C(F)(F)F)nn2c(C)c1CCC(=O)O
Second: COc1cccc2sc(NC(=O)OCC(F)(F)F)nc12
The melting point of the first is lower: 123 to 125 °C for the first, 133 to 135 °C for the second.

Compared with `O=C(O)C(=O)NCC(F)F`, `CCNC(=O)Nc1cccc(F)c1C(=O)O` is higher in melting point: 105 to 107 °C for the first, 159 to 161 °C for the second.

Compared with `O=C(CCl)NCC(c1ccc(Cl)cc1Cl)c1c[nH]c2ccccc12` (centres undefined), `CC(CC#N)Sc1ccccc1NC(=O)CCl` (centres undefined) is higher in melting point: 73 to 75 °C for the first, 89 to 91 °C for the second.

First: O=C(O)C=Cc1cn(-c2ccccc2)nc1-c1ccc2c(c1)OCCO2
Second: CC(Cl)C(=O)Nc1ccc2c(c1)OCCCO2 (centres undefined)
The melting point of the first is higher: 250 to 252 °C for the first, 97 to 99 °C for the second.

First: COc1ccc(C(=O)N2CCCC2)cc1N
Second: COc1ccc(S(=O)(=O)NC2CCOCC2)cc1N
The melting point of the first is lower: 137 to 139 °C for the first, 164 to 166 °C for the second.

First: CC(C)c1ncncc1C(=O)O
Second: CCOC(C)c1ncc(C(=O)O)s1 (centres undefined)
The melting point of the first is higher: 134 to 136 °C for the first, 112 to 114 °C for the second.

First: O=[N+]([O-])c1sc(Cl)nc1Cl
Second: O=[N+]([O-])c1ccc(Cl)c(S(=O)(=O)N2CCOCC2)c1
The melting point of the first is lower: 38 to 40 °C for the first, 149 to 151 °C for the second.

First: O=C(O)c1ccccc1NCCO
Second: OCCNc1ccccn1
The melting point of the first is higher: 142 to 144 °C for the first, 64 to 66 °C for the second.

Compared with `NC(=O)N1CCCC1C(=O)O` (centres undefined), `O=C(O)c1cnn2c1NCCC2` is lower in melting point: 205 to 207 °C for the first, 141 to 143 °C for the second.

First: CC(C)(CN)S(=O)(=O)c1ccc(Br)cc1
Second: Cc1ccc(S(=O)(=O)Cl)cc1Br
The melting point of the first is higher: 74 to 76 °C for the first, 69 to 71 °C for the second.

First: Cn1ccnc1COc1ccc(C(=O)O)cc1
Second: NC(=O)COc1ccc(C(=O)O)cc1
The melting point of the first is lower: 235 to 237 °C for the first, 273 to 275 °C for the second.

First: COc1ccccc1C=NO
Second: NCCc1ccccc1O
The melting point of the first is lower: 86 to 88 °C for the first, 107 to 109 °C for the second.

First: CC1CCN(C(=O)c2cccnc2Cl)CC1
Second: O=C(CCl)NCc1ccccc1S(=O)(=O)N1CCCCC1
The melting point of the first is higher: 96 to 98 °C for the first, 89 to 91 °C for the second.

Compared with `CC(Sc1nncn1C)C(=O)O` (centres undefined), `CC(C)(C)OC(=O)n1ccc(N)n1` is lower in melting point: 157 to 159 °C for the first, 129 to 131 °C for the second.

First: O=C(O)c1cc(S(=O)(=O)Cl)cc(Cl)c1F
Second: CS(=O)(=O)c1cc(S(=O)(=O)Cl)ccc1F
The melting point of the first is higher: 169 to 171 °C for the first, 112 to 114 °C for the second.

Compared with `COc1ccc(-n2ccnc2S)cc1`, `Nc1ccc(OCc2cn3ccccc3n2)cc1` is lower in melting point: 175 to 177 °C for the first, 146 to 148 °C for the second.

`CCN1CCN(Cc2ccc(N)cc2)CC1` and `CC1CN(c2ccc(N)cc2)CC(C)O1` (centres undefined) cannot be ordered by melting point: 72 to 74 °C for the first, 73 to 75 °C for the second.

First: NCCN1C(=O)Cc2ccccc21
Second: O=C(O)CCCN1C(=O)c2ccccc2C1=O
The melting point of the first is lower: 88 to 90 °C for the first, 96 to 98 °C for the second.

First: COC(=O)c1ccc(CBr)cc1OC
Second: COc1cc(C(=O)O)ccc1OC(C)=O
The melting point of the first is lower: 44 to 46 °C for the first, 144 to 146 °C for the second.

Compared with `O=C(O)C1(N2CCOCC2)CCC1`, `O=C(O)c1cc(Cl)c2c(c1)OCCO2` is higher in melting point: 209 to 211 °C for the first, 251 to 253 °C for the second.

Compared with `CC(C)=CC(=O)NCc1ccc(C(=O)O)cc1`, `NC(=O)c1ccc(CSc2ccc(C(=O)O)cc2)cc1` is higher in melting point: 187 to 189 °C for the first, 304 to 306 °C for the second.

Compared with `NCC(=O)Nc1cccc(Br)c1`, `CN(C)c1cccc(C(=O)NN)c1` is higher in melting point: 79 to 81 °C for the first, 99 to 101 °C for the second.

Compared with `Cc1c(C=O)cc(C#N)n1C`, `Cc1ccc(C#N)c(N2CCCC2)c1` is lower in melting point: 85 to 97 °C for the first, 68 to 70 °C for the second.

First: CN(C)CC(O)Cn1cc(N)cn1 (centres undefined)
Second: Cc1cnn(-c2ccc(N)cc2F)c1
The melting point of the first is higher: 68 to 70 °C for the first, 57 to 59 °C for the second.

First: O=C1CC(=O)Nc2ccccc2N1
Second: NNS(=O)(=O)Cc1ccccc1
The melting point of the first is higher: 383 to 385 °C for the first, 131 to 133 °C for the second.

First: Nc1nncc(-c2cccc(F)c2)n1
Second: Nc1noc(-c2ccsc2)n1
The melting point of the first is higher: 224 to 226 °C for the first, 196 to 198 °C for the second.

Compared with `CCc1c(C)nc2ccccc2c1O`, `Cc1ccc2ncnc(O)c2c1` is lower in melting point: 279 to 281 °C for the first, 238 to 240 °C for the second.

Compared with `O=C1CCc2cc(C(=O)CCl)c(F)cc2N1`, `Cc1ccc(S(=O)(=O)Cl)c(F)c1` is lower in melting point: 257 to 259 °C for the first, 39 to 41 °C for the second.

First: Cc1nn(C2CCS(=O)(=O)C2)c(N2CCCCC2)c1C=O (centres undefined)
Second: Nc1ccc2c(c1)S(=O)(=O)NC2=O
The melting point of the first is lower: 86 to 88 °C for the first, 279 to 281 °C for the second.

First: O=C(O)c1nccnc1C(=O)Nc1ccc(F)cc1
Second: O=C(NC(Cc1ccccc1)C(=O)O)c1cccs1 (centres undefined)
The melting point of the first is lower: 177 to 179 °C for the first, 202 to 204 °C for the second.

First: Nc1sc2c(c1C(=O)NCc1ccccc1)CCCC2
Second: CC(N)(C(=O)O)c1ccccc1 (centres undefined)
The melting point of the first is lower: 112 to 114 °C for the first, 169 to 171 °C for the second.

Compared with `N#Cc1cccc(C2(C(=O)O)CC2)c1`, `CN(C(=O)C(C)(C)C)c1ccc(O)cc1` is higher in melting point: 182 to 184 °C for the first, 189 to 191 °C for the second.

First: CCC(C)NS(=O)(=O)c1cccc(N)c1 (centres undefined)
Second: COc1c(Cl)cc(Br)cc1S(N)(=O)=O
The melting point of the first is lower: 89 to 91 °C for the first, 214 to 216 °C for the second.

First: CCOC(=O)C(NS(=O)(=O)CC)C(=O)OCC
Second: CNS(N)(=O)=O
The melting point of the first is higher: 51 to 53 °C for the first, 49 to 51 °C for the second.

First: CC(C)(C)c1noc(-c2cc(Cl)ccc2N)n1
Second: CC(Cl)C(=O)Nc1c(F)c(F)c(F)c(F)c1F (centres undefined)
The melting point of the first is higher: 132 to 134 °C for the first, 123 to 125 °C for the second.
